{"source": "ChEMBL document CHEMBL5260828", "about": "“Amphiphilic glycoconjugates as potential anti-cancer chemotherapeutics” (Eur J Med Chem, 2018)", "key": {"[1]": {"tested_on": "HeLa", "experiment": "Cytotoxicity against human HeLa cells assessed as reduction of cell viability incubated for 48 hrs by MTT assay", "type": "functional, cell-based"}, "[2]": {"tested_on": "Jurkat", "experiment": "Cytotoxicity against human Jurkat cells incubated for 16 hrs by MTS colorimetric assay", "type": "functional, cell-based"}, "[3]": {"tested_on": "T47D", "experiment": "Antiproliferative activity against human T47D cells assessed as inhibition of cell proliferation incubated for 48 hrs by SRB assay", "type": "functional, cell-based"}, "[4]": {"tested_on": "HeLa", "experiment": "Antiproliferative activity against human HeLa cells assessed as inhibition of cell proliferation incubated for 48 hrs by SRB assay", "type": "functional, cell-based"}, "[5]": {"tested_on": "WiDr", "experiment": "Antiproliferative activity against human WiDr cells assessed as inhibition of cell proliferation incubated for 48 hrs by SRB assay", "type": "functional, cell-based"}, "[6]": {"tested_on": "SW1573", "experiment": "Antiproliferative activity against human SW1573 cells assessed as inhibition of cell proliferation incubated for 48 hrs by SRB assay", "type": "functional, cell-based", "settings": "SW1573, 48 h"}, "[7]": {"tested_on": "A549", "experiment": "Antiproliferative activity against human A549 cells assessed as inhibition of cell proliferation incubated for 48 hrs by SRB assay", "type": "functional, cell-based", "settings": "A549, 48 h"}, "[8]": {"tested_on": "HBL-100", "experiment": "Antiproliferative activity against human HBL-100 cells assessed as inhibition of cell proliferation incubated for 48 hrs by SRB assay", "type": "functional, cell-based", "settings": "HBL-100, 48 h"}, "[9]": {"tested_on": "NCI-H460", "experiment": "Cytotoxicity against human NCI-H460 cells", "type": "functional, cell-based"}, "[10]": {"tested_on": "DLD-1", "experiment": "Cytotoxicity against human DLD-1 cells", "type": "functional, cell-based"}, "[11]": {"tested_on": "MRC5", "experiment": "Cytotoxicity against human MRC5 cells", "type": "functional, cell-based"}, "[12]": {"tested_on": "HT-29", "experiment": "Cytotoxicity against human HT-29 cells", "type": "functional, cell-based"}, "[13]": {"tested_on": "HFF", "experiment": "Cytotoxicity against human HFF cells", "type": "functional, cell-based"}, "[14]": {"tested_on": "SAOS-2", "experiment": "Cytotoxicity against human SAOS-2 cells", "type": "functional, cell-based"}, "[15]": {"tested_on": "SW480", "experiment": "Cytotoxicity against human SW480 cells", "type": "functional, cell-based"}, "[16]": {"tested_on": "MCF7", "experiment": "Antiproliferative activity against human MCF7 cells assessed as inhibition of cell proliferation incubated for 24 hrs by trypan blue assay", "type": "functional, cell-based", "settings": "MCF7, 24 h"}, "[17]": {"tested_on": "HL-60", "experiment": "Induction of apoptosis in human HL-60 cells at 5 uM incubated for 24 hrs by Annexin V-FITC/PI based flow cytometric analysis", "type": "functional"}, "[18]": {"tested_on": "HL-60", "experiment": "Cytotoxicity against human HL-60 cells assessed as inhibition of cell growth incubated for 22 hrs by MTS spectrophotometric assay", "type": "functional, cell-based", "settings": "HL-60, 22 h"}, "[19]": {"tested_on": "THP-1", "experiment": "Cytotoxicity against human THP-1 cells assessed as inhibition of cell growth incubated for 22 hrs by MTS spectrophotometric assay", "type": "functional, cell-based", "settings": "THP-1, 22 h"}}}
{"smiles": "CCCCCCCCCCCCCCCC(=O)OCc1cn([C@@H]2O[C@H](CO)[C@@H](O)[C@H](O)[C@H]2O)nn1", "values": [{"measurement": "IC50", "setting": "[1]", "value": 121, "unit": "µM"}]}
{"smiles": "CCCCCCCCCCCCCCCCn1cc(CO[C@@H]2O[C@H](CO)[C@@H](O)[C@H](O)[C@H]2O)nn1", "values": [{"measurement": "IC50", "setting": "[2]", "value": 24, "unit": "µM"}]}
{"smiles": "CCCCCCCCN[C@@H]1[C@H](O)[C@@H](O)[C@@H](O)[C@H]2COC(=O)N21", "values": [{"measurement": "IC50", "setting": "[3]", "value": 30, "unit": "µM"}, {"measurement": "IC50", "setting": "[4]", "value": 30, "unit": "µM"}, {"measurement": "IC50", "setting": "[5]", "value": 30, "unit": "µM"}, {"measurement": "IC50", "setting": "[6]", "value": 30, "unit": "µM"}, {"measurement": "IC50", "setting": "[7]", "value": 30, "unit": "µM"}, {"measurement": "IC50", "setting": "[8]", "value": 30, "unit": "µM"}]}
{"smiles": "C[C@@H](N)[C@H](O)CCCCCCCC(=O)CCCCCCCCCCCCCC[C@H](O)[C@H](N)CO[C@@H]1O[C@H](CO)[C@@H](O)[C@H](O)[C@H]1O", "values": [{"measurement": "IC50", "setting": "[9]", "value": 3, "unit": "µg/mL"}, {"measurement": "IC50", "setting": "[10]", "value": 3, "unit": "µg/mL"}, {"measurement": "IC50", "setting": "[11]", "value": 3, "unit": "µg/mL"}, {"measurement": "IC50", "setting": "[12]", "value": 3, "unit": "µg/mL"}, {"measurement": "IC50", "setting": "[13]", "value": 3, "unit": "µg/mL"}, {"measurement": "IC50", "setting": "[14]", "value": 3, "unit": "µg/mL"}, {"measurement": "IC50", "setting": "[15]", "value": 3, "unit": "µg/mL"}]}
{"smiles": "CCCCCCCC[C@@H]1[C@H](O)[C@@H](O)[C@H](O)[C@H]2COC(=O)N12", "values": [{"measurement": "IC50", "setting": "[16]", "value": 22, "unit": "µM"}]}
{"smiles": "C[C@@H](N)[C@H](O)CCCCCCCCCCCCCCC(=O)CCCCCCC[C@@H](O)[C@@H](C)N", "values": [{"measurement": "Activity", "setting": "[17]", "value": 93, "unit": "%"}]}
{"smiles": "C[C@@H](N)[C@H](O)CCCCCCCC(=O)CCCCCCCCCCCCCC[C@H](O[C@@H]1O[C@H](CO)[C@H](O)[C@H](O)[C@H]1O)[C@@H](C)N", "values": [{"measurement": "IC50", "setting": "[18]", "value": 1.7, "unit": "µM"}, {"measurement": "IC50", "setting": "[19]", "value": 1.7, "unit": "µM"}]}
